Assay [1] deals with T1, A3 receptors (Homo sapiens, UniProt P0DMS8).
T1 construct: purchased PerkinElmer ES-012-M
T1 sequence (P0DMS8 1-318): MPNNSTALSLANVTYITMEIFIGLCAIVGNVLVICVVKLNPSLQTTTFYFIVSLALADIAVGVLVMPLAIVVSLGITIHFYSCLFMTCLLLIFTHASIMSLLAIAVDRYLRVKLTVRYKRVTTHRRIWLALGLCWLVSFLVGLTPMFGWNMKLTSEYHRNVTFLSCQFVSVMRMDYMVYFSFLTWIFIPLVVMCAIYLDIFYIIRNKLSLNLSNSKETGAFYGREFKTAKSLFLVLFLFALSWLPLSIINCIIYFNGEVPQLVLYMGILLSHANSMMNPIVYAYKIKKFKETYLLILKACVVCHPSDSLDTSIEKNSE
Briefly: radioligand binding to human A3 receptors, CHO-K1 membranes, [125I]AB-MECA. As for the experimental part:
(§1) The radioligand-binding assays for adenosine receptors were performed at Eurofins Discovery Services (Panlabs, Taiwan). Briefly, stock solutions of the compounds were prepared in DMSO and further diluted with the incubation buffer to the desired concentration. Final DMSO concentrations in the assay were 1.0%. For adenosine A1 screening, a 10 μg aliquots of membrane preparations from human recombinant CHO-K1 cells stably expressing A1 receptors (CHO-K1-hA1AR clone3, EPDST, R200510) were incubated with 1 nM [^3H]DPCPX in incubation buffer (20 mM HEPES, pH 7.4, 10 mM MgCl2, 100 mM NaCl 1.40 nM) for 90 min at 25 °C. Nonspecific binding was estimated in the presence of 100 μM R(-)-PIA. Membranes were filtered and washed 3 times and the filters were counted to determine specifically bound [^3H]DPCPX. Chemical compounds were screened at 10 μM. For A2A screening, membrane preparations from human recombinant HEK-293 cells stably expressing A2A receptors (PerkinElmer, RBHA2AM) were incubated with 0.05 μM [^3H]CGS-21680 in incubation buffer (50 mM Tris-HCl, pH 7.4, 10 mM MgCl2, 1 mM EDTA, 2 U/mL Adenosine Deaminase) for 90 min at 25 °C. Nonspecific binding was estimated in the presence of 50.0 μM NECA. Membranes were filtered and washed 3 times and the filters were counted to determine [^3H]CGS-21680 specifically bound. […] Membranes were filtered and washed 3 times and the filters were counted to determine [^3H]MRS1754 specifically bound. […]
(§2) IC50 values were determined by a nonlinear, least-squares regression analysis using MathIQ^TM (ID Business Solutions Ltd., Guildford, UK). Where inhibition constants (Ki) were presented, the Ki values were calculated using Cheng and Prusoff equation [18] using the observed IC50 of the compound, the concentration of radioligand employed in the assay, and the historical values for the KD of the ligand (obtained experimentally at Eurofins Panlabs, Inc.). The Hill coefficient (nH), which defines the slope of the competitive binding curve, was calculated using MathIQ^TM.

For assay [2], the target named is T2, A2B receptors (Homo sapiens, UniProt P29275).
T2 construct: purchased PerkinElmer ES-013-M
T2 sequence (P29275 1-332): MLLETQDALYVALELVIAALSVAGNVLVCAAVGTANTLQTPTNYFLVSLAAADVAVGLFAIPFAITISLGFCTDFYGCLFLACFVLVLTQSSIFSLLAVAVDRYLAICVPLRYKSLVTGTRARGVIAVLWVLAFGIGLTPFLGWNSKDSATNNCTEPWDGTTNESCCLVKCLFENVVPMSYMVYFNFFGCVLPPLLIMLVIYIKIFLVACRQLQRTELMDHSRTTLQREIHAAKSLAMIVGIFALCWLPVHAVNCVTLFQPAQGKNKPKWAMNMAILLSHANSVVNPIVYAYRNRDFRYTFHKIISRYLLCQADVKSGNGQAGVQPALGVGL
The experiment in a line: radioligand binding to human A2B receptors, HEK-293 membranes, [3H]MRS1754. Here is the method:
as §1, §2

Assay [3] concerns the target A2A adenosine receptor (Homo sapiens, UniProt P29274). Briefly: cyclic AMP HTRF functional assay, HEK-293 (A2A). The class given is cell-based. The settings on record: HEK-293 cells. As for the experimental part:
Next, the functional activity of 11o against A1 and A2A adenosine receptors was evaluated using c-AMP assay in CHO-K1 (A1) and HEK-293 (A2A) cells.
For functional studies, A1 and A2A receptor cyclic AMP HTRF (homogeneous time resolved fluorescence) assay was performed at EuroscreenFast (Charleroi, Belgium) using CHO-K1 (A1) and HEK293 (A2A) stable cell line with CPA (A1) and NECA (A2A) as reference agonist and DPCPX (A1) and ZM241385 (A2A) as reference antagonist compound.
(In TR-FRET formats the signal depends on donor and acceptor labels being close together.)

In assay [4] the test system is haloperidol-induced catalepsy. Briefly: haloperidol-induced catalepsy in female rats (bar test). The class given is in vivo, Sprague Dawley rats. Here is the method: Vehicle or varying amount of 11o (0.3, 1, 3, 10 mg/kg) was administered first, followed by IP injection of 1 mg/kg haloperidol 60 min later.
A total of 120 female Sprague Dawley rats (275~300 g) were purchased from Charles River Laboratories (Charles River, Senneville, QC, Canada) and maintained at Atuka, Inc. All animal studies were conducted at Atuka, Inc. according to CCAC guidelines and under IACUC-approved Animal Use Protocols (AUPs), with IACUC number 6606.0.3 for this study.
The catalepsy study incorporated 12 groups of rats. Ten rats were incorporated into each treatment group (total N = 120 rats). Treatments were divided over 3 consecutive treatment blocks and the order of treatments were randomized within each block and all treatments completed within that block before proceeding to the next. […] Catalepsy was assessed a further 60 min later (t = 120).
Behavior was evaluated in each animal by assessing performance on the bar test. Catalepsy was assessed 60 min following haloperidol administration (120 min following administration of vehicle, 11o or istradefylline). […] The time taken for the animal to remove both paws (decent latency) from the rod and place them back on the surface, in seconds was determined. The test was conducted in triplicate and the average of the three tests were calculated.

The mark [5] stands for this setting: average of duplicate experiments.

Chain of A2A adenosine receptor (P29274 whole entry): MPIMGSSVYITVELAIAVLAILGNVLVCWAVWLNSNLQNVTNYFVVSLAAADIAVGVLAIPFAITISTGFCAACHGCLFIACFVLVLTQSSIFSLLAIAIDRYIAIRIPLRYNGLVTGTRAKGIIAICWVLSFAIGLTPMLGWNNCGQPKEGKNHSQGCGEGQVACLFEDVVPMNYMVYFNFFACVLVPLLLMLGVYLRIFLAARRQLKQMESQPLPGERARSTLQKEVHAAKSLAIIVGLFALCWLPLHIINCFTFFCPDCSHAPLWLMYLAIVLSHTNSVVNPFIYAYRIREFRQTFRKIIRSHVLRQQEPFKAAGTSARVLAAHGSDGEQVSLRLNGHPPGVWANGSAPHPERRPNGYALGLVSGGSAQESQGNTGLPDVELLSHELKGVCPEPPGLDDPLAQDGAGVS

What is called IC50 is the concentration that gives 50% inhibition. What is called Ki is a dissociation constant, usually derived from enzyme kinetics or from competition with a known ligand. A low value points to higher affinity. As usually defined, the ED50 is the dose at which the effect has come halfway, by size or by number of responders. On to `Cc1cc(Cn2ncc3c(-c4cccc(C#N)c4F)nc(N)nc32)ccc1N` [11o, 3-(6-Amino-1-(4-amino-3-methylbenzyl)-1H-pyrazolo[3,4-d]pyrimidin-4-yl)-2-fluorobenzonitrile], for which the “nH (Hill coefficient), A3” value in assay [1] amounted to 0.44. Moreover, the IC50 in assay [1] (setting [5]) worked out at 1.13 µM; in assay [2] (setting [5]) it was 1.22 µM; in assay [3] (read-out: IC50, A2A functional antagonism (c-AMP)), 0.136 µM. Further, the Ki in assay [1] (setting [5]) is 1.05 µM; in assay [2] (setting [5]) it was 0.4 µM. Besides, the “nH (Hill coefficient), A2B” value in assay [2] stood at 0.98. Besides, the “functional activity at A2A receptor” value in assay [3] is recorded as “full antagonism”. For the same compound, the “reversal of haloperidol-induced catalepsy (latency to step down)” value in assay [4] (0.3, 1, 3, 10 mg/kg PO, maximum effect at 10 mg/kg, comparable to istradefylline 1 mg/kg) is reported as “dose-dependently reversed haloperidol-induced catalepsy”. Further, the median effective dose (ED50) in assay [4] (Rattus norvegicus, PO 60 min before haloperidol 1 mg/kg, read-out: graded ED50, reversal of haloperidol-induced catalepsy) is 3 to 10 mg/kg.
